According to PubChem BioAssay AID1963838 (Molecular Pharmacology Branch, DTP, NCI, 2024):

System: 855422-203-R-J1-PDC complex spheroid viability
Assay: Anticancer human tumor 855422-203-R-J1-PDC patient-derived bladder carcinoma cell line growth inhibition [POLQ]
Conditions: for IC50: curve of first compound; for viability, T/C: stronger effect = lower value
Protocol: Multicellular complex tumor spheroid response to Polymerase (POL) inhibitors (novobiocin, ART-558, RP6685) in combination with a variety of drugs and investigational agents in selected tumor cell lines
The POL inhibitors (novobiocin, ART-558, and RP6685) were evaluated both individually and in combination with standard of care and investigational anticancer small molecules within a complex spheroid model of solid tumors. . Complex spheroids include a stromal component modeled by human endothelial cells (HUVEC) and fibroblasts modeled by human mesenchymal stem cells (MSCs). The concentration ranges selected for each drug and investigational agent were based upon clinically achievable concentrations if the clinical Cmax of the agent was known.
Compounds. The drugs and investigational agents: novobiocin (NSC847541), ART-558 (NSC835418), RP-6685 (NSC848927), peposertib (NSC802822), ceralasertib (NSC780249), elimusertib (NSC800525), camonsertib (NSC841442), AZD-1390 (NSC803789), olaparib (NSC753686), talazoparib (NSC767125), rucaparib (NSC756644), sotorasib (NSC818433), MRTX-1133 (NSC836407), SN-38 (NSC673596), topotecan (NSC609699), epotoside (NSC141540), doxorubicin (NSC123127), gemcitabine (NSC613327), 5-fluorouracil (NSC19893), paclitaxel (NSC125973), vemurafenib (NSC761431), MSA-2 (NSC828583), SN-011 (NSC837082), adavosertib (NSC754352), prexasertib (NSC758257), carboplatin (NSC241240) and oxaliplatin (NSC266046), were obtained from the National Cancer Institute (NCI) Developmental Therapeutics Program Chemical Repository (21). The FDA-approved anticancer drug set is available from the Developmental Therapeutics Program at https://dtp.cancer.gov/organization/dscb/obtaining/. […] The stock solutions were prepared in dimethyl sulfoxide (DMSO, Sigma-Aldrich, St. Louis, MO, cat. D2650), except for the platinum compounds which were prepared in saline (Quality Biological, Gaithersburg, MD, cat. 114-055-101), at 800-fold the tested concentration and stored at -70 degrees C prior to their use. All drugs and investigational agents were tested over a range starting from a high concentration at or near the clinical Cmax and decreasing in half-log increments. If the clinical Cmax for an agent had not been determined, the highest concentration tested was 10 microM, except for SN-38, which was tested at a high concentration of 1 microM.
Cell Culture. All cells were maintained in an incubator at 37 degrees C and 5% CO2 with 95% humidity. The PDC lines were cultured according to standard operating procedures established by the NCI PDMR (https://pdmr.cancer.gov). Table 3 of the manuscript, lists the cell lines along with the number of the three cell types plated to form the mct-spheroids and media for tumor cell growth. After thawing, all PDC lines, except 997537-175-T-J1-PDC and 415267-285-R-J2-PDC, were cultured in Matrigel-coated flasks prepared with a working solution of 1X Ham's F-12 nutrient mix, without supplementation (Thermo Fisher Scientific, cat. 11765054), 100 U/mL penicillin-streptomycin (Thermo Fisher Scientific, cat. 15140122), and 2.5% Matrigel (Corning Inc., Corning, NY, cat. 354248) for the first three passages. The two PDC lines 997537-175-T-J1-PDC and 415267-285-R-J2-PDC were cultured on uncoated flasks. The 857933-349-R-J2-PDC line was cultured in 6C/Colon 1B media containing advanced DMEM/F-12 (Thermo Fisher Scientific, cat. 12634028), 10 mM HEPES (Thermo Fisher Scientific, cat. 15630080), 1X GlutaMAX supplement (Thermo Fisher Scientific, cat. 35050061), 0.1 mg/mL primocin (InvivoGen, San Diego, CA, cat. ant-pm-2), 10% defined fetal bovine serum, heat inactivated (HyClone Laboratories Inc., Logan, UT, cat. SH30070.03HI), 50% L-WRN conditioned media (ATCC, cat. CRL-3276), 1.25 mM N-Acetyl-L-cysteine (Sigma-Aldrich, cat. A9165), 10 mM nicotinamide (Sigma-Aldrich, cat. N0636), 1X B-27 supplement (Thermo Fisher Scientific, cat. 17504044), 1X N-2 supplement (Thermo Fisher Scientific, cat. […]

[1] = second compound 0.0316 µM, first compound 0.0316 µM
[2] = second compound 0.0316 µM, first compound 0.1 µM
[3] = second compound 0.0316 µM, first compound 0.316 µM
[4] = second compound 0.0316 µM, first compound 1 µM
[5] = second compound 0.0316 µM, first compound 3.16 µM
[6] = second compound 0.0316 µM, first compound 10 µM
[7] = second compound 0.1 µM, first compound 0.0316 µM
[8] = second compound 0.1 µM, first compound 0.1 µM
[9] = second compound 0.1 µM, first compound 0.316 µM
[10] = second compound 0.1 µM, first compound 1 µM
[11] = second compound 0.1 µM, first compound 3.16 µM
[12] = second compound 0.1 µM, first compound 10 µM
[13] = second compound 0.316 µM, first compound 0.0316 µM
[14] = second compound 0.316 µM, first compound 0.1 µM
[15] = second compound 0.316 µM, first compound 0.316 µM
[16] = second compound 0.316 µM, first compound 1 µM
[17] = second compound 0.316 µM, first compound 3.16 µM
[18] = second compound 0.316 µM, first compound 10 µM
[19] = second compound 1 µM, first compound 0.0316 µM
[20] = second compound 1 µM, first compound 0.1 µM
[21] = second compound 1 µM, first compound 0.316 µM
[22] = second compound 1 µM, first compound 1 µM
[23] = second compound 1 µM, first compound 3.16 µM
[24] = second compound 1 µM, first compound 10 µM
[25] = second compound 3.16 µM, first compound 0.0316 µM
[26] = second compound 3.16 µM, first compound 0.1 µM
[27] = second compound 3.16 µM, first compound 0.316 µM
[28] = second compound 3.16 µM, first compound 1 µM
[29] = second compound 3.16 µM, first compound 3.16 µM
[30] = second compound 3.16 µM, first compound 10 µM
[31] = second compound 10 µM, first compound 0.0316 µM
[32] = second compound 10 µM, first compound 0.1 µM
[33] = second compound 10 µM, first compound 0.316 µM
[34] = second compound 10 µM, first compound 1 µM
[35] = second compound 10 µM, first compound 3.16 µM
[36] = second compound 10 µM, first compound 10 µM
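Note: spheroids exposed to compounds for seven days before readout.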

CC1COCCN1c1cc(C2(O)CC3CCC(C2)O3)c2cnn(-c3ccn[nH]3)c2n1 (centres undefined) + COC1C(OC(N)=O)C(O)C(Oc2ccc3c(O)c(NC(=O)c4ccc(O)c(CC=C(C)C)c4)c(=O)oc3c2C)OC1(C)C
IC50 (second compound 0.0316 µM): 113 nM
IC50 (second compound 0.1 µM): 84.4 nM
IC50 (second compound 0.316 µM): 106 nM
IC50 (second compound 1 µM): 107 nM
IC50 (second compound 3.16 µM): 96.7 nM
IC50 (second compound 10 µM): 87.8 nM
viability, T/C [1]: 94.3%
viability, T/C [2]: 54.2%
viability, T/C [3]: 14.5%
viability, T/C [4]: 8.78%
viability, T/C [5]: 6.63%
viability, T/C [6]: 3.87%
viability, T/C [7]: 84.8%
viability, T/C [8]: 44.1%
viability, T/C [9]: 13.4%
viability, T/C [10]: 9.17%
viability, T/C [11]: 6.55%
viability, T/C [12]: 4.3%
viability, T/C [13]: 99.6%
viability, T/C [14]: 52%
viability, T/C [15]: 18.9%
viability, T/C [16]: 10.2%
viability, T/C [17]: 8.4%
viability, T/C [18]: 3.49%
viability, T/C [19]: 109%
viability, T/C [20]: 52.2%
viability, T/C [21]: 12.7%
viability, T/C [22]: 8.94%
viability, T/C [23]: 7.59%
viability, T/C [24]: 4.06%
viability, T/C [25]: 112%
viability, T/C [26]: 48.2%
viability, T/C [27]: 14.7%
viability, T/C [28]: 8.35%
viability, T/C [29]: 7.58%
viability, T/C [30]: 3.81%
viability, T/C [31]: 112%
viability, T/C [32]: 42%
viability, T/C [33]: 15.8%
viability, T/C [34]: 8.17%
viability, T/C [35]: 7.6%
viability, T/C [36]: 4.01%

CCc1cc2c(N3CCc4c(cc(Cn5ccnc5)cc4-c4cn(C)nc4C(F)(F)F)C3=O)cc(C)nc2c(OC)n1 + COC1C(OC(N)=O)C(O)C(Oc2ccc3c(O)c(NC(=O)c4ccc(O)c(CC=C(C)C)c4)c(=O)oc3c2C)OC1(C)C
IC50 (second compound 0.0316 µM): 2800 nM
IC50 (second compound 0.1 µM): 1450 nM
IC50 (second compound 0.316 µM): 1640 nM
IC50 (second compound 1 µM): 1750 nM
IC50 (second compound 3.16 µM): 2120 nM
IC50 (second compound 10 µM): 1220 nM
viability, T/C [1]: 89.1%
viability, T/C [2]: 78.2%
viability, T/C [3]: 75.6%
viability, T/C [4]: 71.5%
viability, T/C [5]: 45.7%
viability, T/C [6]: 25.3%
viability, T/C [7]: 105%
viability, T/C [8]: 80%
viability, T/C [9]: 65.4%
viability, T/C [10]: 58.9%
viability, T/C [11]: 43.9%
viability, T/C [12]: 24.5%
viability, T/C [13]: 106%
viability, T/C [14]: 90.2%
viability, T/C [15]: 67.8%
viability, T/C [16]: 63%
viability, T/C [17]: 39.6%
viability, T/C [18]: 23.5%
viability, T/C [19]: 114%
viability, T/C [20]: 79.6%
viability, T/C [21]: 76.3%
viability, T/C [22]: 63.3%
viability, T/C [23]: 41.1%
viability, T/C [24]: 25.9%
viability, T/C [25]: 91.2%
viability, T/C [26]: 86%
viability, T/C [27]: 75.4%
viability, T/C [28]: 62%
viability, T/C [29]: 43.7%
viability, T/C [30]: 25.4%
viability, T/C [31]: 83.2%
viability, T/C [32]: 73.8%
viability, T/C [33]: 62.7%
viability, T/C [34]: 56.6%
viability, T/C [35]: 35.8%
viability, T/C [36]: 22.1%
